In paper PMC8143291, “Cytotoxicity and Microbicidal Activity of Commonly Used Organic Solvents: A Comparative Study and Application to a Standardized Extract from Vaccinium macrocarpon” (Toxics, 2021):

Columns and labels:
S. Aureus ATCC 29213 = assay: Dehydrogenase activity (DEHA) MTT test after BMD; format: cell-based, Staphylococcus aureus; conditions: 24 h exposure; % against untreated control; ± SD; n = 3
Description: (§1) The cell dehydrogenase (DEHA, redox, metabolic) activity of all samples was measured at the end of the BMD assay, based on reducing the MTT dye to formazan by the membrane located bacterial enzyme NADH: ubiquinone reductase (H^+-translocation). The protocol of Wang et al. was applied after minor modifications. Briefly, each sample was incubated for 120 min at 37 °C with MTT at a final concentration of 0.5 mg/mL in the culture medium. The resulting non-soluble violet formazan crystals were dissolved with an equal volume of 2-propanol supplemented with 5% formic acid. The absorbance was measured at 550 nm against a blank solution containing the respective volumes of MHB and MTT.
The cell viability is presented as a percentage of the untreated control. At least four wells were seeded for every concentration. Three independent assays were performed (n = 3). […] The respiratory activity of the bacterial cultures was calculated as a percentage against the untreated control.

[1] = tested on: Y. enterocolitica IP 864 O: 3; assay: Dehydrogenase activity (DEHA) MTT test after BMD; format: cell-based, Yersinia enterocolitica; conditions: 24 h exposure; % against untreated control; ± SD; n = 3
Description: as §1
The IC50 values from the MTT assay were evaluated with a non-linear regression analysis (Curve fit, GraphPad Prizm 6.01 software, GraphPad Software Inc., San Diego, CA, USA) using sigmoidal concentration–response curves. The cell viability is presented as a percentage of the untreated control. At least four wells were seeded for every concentration. Three independent assays were performed (n = 3). The maximum tolerated concentration (MTC) for the cell lines was determined from three independent assays according to ISO 10993-5 as the maximum concentration at which at least 70% of the cells were viable (nonlin fit, range, GraphPad Prizm 6.01 software) GraphPad Software Inc., San Diego, CA, USA). To compare the MTC values of the solvents for each cell line, the ordinary One-way ANOVA statistical analysis based on Tukey’s multiple comparisons test with a single pooled variance (GraphPad Prizm 6.01 software) GraphPad Software Inc., San Diego, CA, USA) was utilized, and p ≤ 0.05 was set as a significance level. The respiratory activity of the bacterial cultures was calculated as a percentage against the untreated control.

[2] = tested on: S. Aureus MRSA NBIMCC 8327; assay: Dehydrogenase activity (DEHA) MTT test after BMD; format: cell-based, Staphylococcus aureus; conditions: 24 h exposure; % against untreated control; ± SD; n = 3
Description: as §1
The IC50 values from the MTT assay were evaluated with a non-linear regression analysis (Curve fit, GraphPad Prizm 6.01 software, GraphPad Software Inc., San Diego, CA, USA) using sigmoidal concentration–response curves. The cell viability is presented as a percentage of the untreated control. […] The maximum tolerated concentration (MTC) for the cell lines was determined from three independent assays according to ISO 10993-5 as the maximum concentration at which at least 70% of the cells were viable (nonlin fit, range, GraphPad Prizm 6.01 software) GraphPad Software Inc., San Diego, CA, USA). […] The respiratory activity of the bacterial cultures was calculated as a percentage against the untreated control.

[3] = tested on: A-375 (malignant melanoma); assay: MTT dye-reduction cytotoxicity assay (ISO 10993-5); format: cell-based, human; conditions: solvent alone, n = 3
Description: The cell lines utilized in this study included the human tumor lines A-375 (malignant melanoma) and A-431 (non-melanoma epidermoid squamous skin carcinoma) as well as the models for non-tumorigenic cells—HaCaT (immortalized human keratinocytes) and CCL-1^TM (transformed mouse fibroblasts, NCTC clone 929). The first three cell lines were obtained from CLS Cell Lines Service (GmbH, Eppelheim, Germany). CCL-1^TM was purchased from the American Type Culture Collection (ATCC, Manassas, VA, USA). Cells were maintained in a controlled environment—sterile cell culture flasks in a CO2 incubator Panasonic MCO-18AC (Panasonic Healthcare co., ltd, Oizumi-Machi, Japan) at 37 °C and a humidified atmosphere containing 5% CO2. CCL-1 was cultured in MEM with 10% heat-inactivated horse serum and 2 mM L-glutamine, and the cell culture medium for the rest of the cell lines was DMEM-HG with 4.5 g/L glucose with the addition of 10% heat-inactivated fetal bovine serum and 4 mM L-glutamine. Pen/strep (concentration of penicillin G sodium 10^5 Units/L and of streptomycin sulfate 100 mg/L) was added to both culture media. The cell lines were maintained as an adherent monolayer in a log phase. The cells were sub-cultivated about 1–3 times per week after the monolayer reached 80–90% confluence. The medium was removed from the flask, and the cell monolayer was washed with 3–5 mL PBS. The cells were incubated with 0.05% EDTA in PBS for 8–10 min, followed by the next step where all cell lines were subjected to enzyme cell detachment. HaCaT and CCL-1 monolayers were detached with 1 mL solution of trypsin/EDTA (0.1%/0.05% for HaCaT and 0.25% (w/v)/0.53 mM for CCL-1) and incubated for 2–5 min at 37 °C (for HaCaT) or at room temperature (for CCL-1 cells), whereas Accutase® was used for A-375 and A-431 lines. The incubation lasted until the separation and dispersion of the cells in the monolayer were observed using light microscopy. In the end, all cell lines were resuspended in 10 mL medium and centrifuged for 3 min at 300× g. The cell pellet was resuspended in fresh medium and sub-cultivated at a seeding density of 1.0 × 10^4 cells/cm^2.
The MTT test was performed in order to determine the median inhibitory (IC50) and MTC concentrations of the solvents and PAC according to Annex C, ISO 10993-5 [2, 21]. Briefly, 100 µL of the cell suspension (1 × 10^5 cells/mL) were seeded per well in 96-well plates with a flat bottom. The cells were incubated for 24 h, allowing them to enter the log phase of their growth. On the 24th hour, the cells were treated with the solvents or CystiCran® solutions in concentrations ranging between 0.004% and 2% volume fraction (v/v) and incubated further for 72 h. The incubation periods are following the recommendations of the FDA guide for the use of ISO 10993-1 [1]. At the end of the incubation period, 10 µL of an MTT solution (5 mg/mL) were added to each well, and the plates were kept at 37 °C for 2 hours. Thereafter, the medium was aspirated, and the formed formazan crystals were dissolved in 100 μL/well of 2-propanol supplemented with 5% formic acid. The same solvent was used as a blank. […] The absorption was measured at 540 nm (reference filter at 690 nm) on a microplate reader ELx800 (BioTek Instruments, Inc., Winooski, VT, Winooski, VT, USA).
The IC50 values from the MTT assay were evaluated with a non-linear regression analysis (Curve fit, GraphPad Prizm 6.01 software, GraphPad Software Inc., San Diego, CA, USA) using sigmoidal concentration–response curves. […]

[4] = tested on: breast cancer, mouse macrophage and human umbilical vein endothelial cells; set-up: method as in doi:10.17795/ajmb-33453; conditions: cited from earlier work

SMILES	DEHA (dehydrogenase activity) (S. Aureus ATCC 29213) [%]	DEHA (dehydrogenase activity) [1] [%]	DEHA (dehydrogenase activity) [2] [%]	MTC (maximum tolerated concentration) ([3]; 72 h, at least 70% of cells viable)	IC50 (CI 95%) ([3]; 72 h incubation)	maximum tolerated concentration (MTC) / applicable concentration [4]
C[S+](C)[O-] [DMSO, dimethyl sulfoxide]	12.29 ± 0.04	19.13 ± 0.17	13.01 ± 0.05			
CCO [EtOH, ethanol]				> 2 % (v/v)	> 2 % (v/v)	up to 0.5 % v/v
